# Target: KRas G12D (Homo sapiens (Human), UniProt P01116, G12D)
# Assay: KRas G12D Binding Assay (TR-FRET displacement of Cy5 labelled tracer)
# Conditions: GDP-loaded KRAS G12D (amino acids 1:169), 60 minute incubation at 22° C.
# Method: After a 60 minute incubation at 22° C., the reaction was measured using a PerkinElmer EnVision multimode plate reader via TR-FRET dual wavelength detection, and the percent of control (POC) calculated using a ratiometric emission factor. […] The POC values were fit to a 4-parameter logistic curve and the IC50 value was determined as the concentration where the curve crosses 50 POC.
# ND stands for “not determined.”
# Chain of KRas G12D (P01116 other isoform, or with tags, fused parts or gaps G12D): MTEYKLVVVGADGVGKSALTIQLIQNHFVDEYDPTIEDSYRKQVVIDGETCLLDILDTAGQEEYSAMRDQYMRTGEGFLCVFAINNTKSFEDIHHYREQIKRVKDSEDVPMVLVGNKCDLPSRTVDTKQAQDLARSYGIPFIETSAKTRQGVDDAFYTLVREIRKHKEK
row,SMILES,IC50 [nM]
1,"N=C(N)NCCOc1nc(N2CC3CCC(C2)N3)c2cnc(-c3cccc4cccc(Cl)c34)c(F)c2n1 [Example 176, 1-[2-[7-(8-chloro-1-naphthyl)-4-(3,8-diazabicyclo[3.2.1]octan-3-yl)-8-fluoro-pyrido[4,3-d]pyrimidin-2-yl]oxyethyl]guanidine]",235
2,"N=C(N)NCCCOc1nc(N2CC3CCC(C2)N3)c2cnc(-c3cccc4cccc(Cl)c34)c(F)c2n1 [Example 177, 1-[3-[7-(8-chloro-1-naphthyl)-4-(3,8-diazabicyclo[3.2.1]octan-3-yl)-8-fluoro-pyrido[4,3-d]pyrimidin-2-yl]oxypropyl]guanidine]",187
3,"Nc1nccn1CCOc1nc(N2CC3CCC(C2)N3)c2cnc(-c3cccc4cccc(Cl)c34)c(F)c2n1 [Example 178, 1-[2-[7-(8-chloro-1-naphthyl)-4-(3,8-diazabicyclo[3.2.1]octan-3-yl)-8-fluoro-pyrido[4,3-d]pyrimidin-2-yl]oxyethyl]imidazol-2-amine]",105
4,"Fc1c(-c2cccc3cccc(-c4c[nH]nn4)c23)ncc2c(N3C[C@H]4CC[C@@H](C3)N4)nc(OCC34CCCN3CCC4)nc12 [Example 180, 7-(8-(1H-1,2,3-triazol-4-yl)naphthalen-1-yl)-4-((1R,5S)-3,8-diazabicyclo[3.2.1]octan-3-yl)-8-fluoro-2-((hexahydro-1H-pyrrolizin-7a-yl)methoxy)pyrido[4,3-d]pyrimidine]",76.1
5,"Oc1cc(-c2ncc3c(N4C[C@H]5CC[C@@H](C4)N5)ncnc3c2F)c2ccccc2c1 [Example 181, 4-(4-((1R,5S)-3,8-diazabicyclo[3.2.1]octan-3-yl)-8-fluoropyrido[4,3-d]pyrimidin-7-yl)naphthalen-2-ol]",572
6,"Nc1nc(N2CC3CCC(C2)N3)c2cnc(-c3cc(O)cc4ccccc34)c(F)c2n1 [Example 182, 4-[2-amino-4-(3,8-diazabicyclo[3.2.1]octan-3-yl)-8-fluoro-pyrido[4,3-d]pyrimidin-7-yl]naphthalen-2-ol]",269
7,"CNc1nc(N2CC3CCC(C2)N3)c2cnc(-c3cc(O)cc4ccccc34)c(F)c2n1 [Example 183, 4-[4-(3,8-diazabicyclo[3.2.1]octan-3-yl)-8-fluoro-2-(methylamino)pyrido[4,3-d]pyrimidin-7-yl]naphthalen-2-ol]",393
8,"CN(C)c1nc(N2CC3CCC(C2)N3)c2cnc(-c3cc(O)cc4ccccc34)c(F)c2n1 [Example 184, 4-[4-(3,8-diazabicyclo[3.2.1]octan-3-yl)-2-(dimethylamino)-8-fluoro-pyrido[4,3-d]pyrimidin-7-yl]naphthalen-2-ol]",1990
9,"C#Cc1cccc2cc(O)cc(-c3ncc4c(N5C[C@H]6CC[C@@H](C5)N6)nc(OCC56CCCN5CCC6)nc4c3F)c12 [Example 185, 4-(4-((1R,5S)-3,8-diazabicyclo[3.2.1]octan-3-yl)-8-fluoro-2-((hexahydro-1H-pyrrolizin-7a-yl)methoxy)pyrido[4,3-d]pyrimidin-7-yl)-5-ethynylnaphthalen-2-ol]",0.3
10,"Fc1c(-c2cccc3ccccc23)ncc2c(N3C[C@H]4CC[C@@H](C3)N4)nc(OCC34CCCN3CCC4)nc12 [Example 186, 4-((1R,5S)-3,8-diazabicyclo[3.2.1]octan-3-yl)-8-fluoro-7-(naphthalen-1-yl)-2-((tetrahydro-1H-pyrrolizin-7a(5H)-yl)methoxy)pyrido[4,3-d]pyrimidine]",29.2
11,"CCc1cccc2cccc(-c3ncc4c(N5C[C@H]6CC[C@@H](C5)N6)nc(OCC56CCCN5CCC6)nc4c3F)c12 [Example 187, 4-((1R,5S)-3,8-diazabicyclo[3.2.1]octan-3-yl)-7-(8-ethylnaphthalen-1-yl)-8-fluoro-2-((tetrahydro-1H-pyrrolizin-7a(5H)-yl)methoxy)pyrido[4,3-d]pyrimidine]",1.7
12,"C#Cc1cccc2cccc(-c3ncc4c(N5CC6CCC(C5)N6)ncnc4c3F)c12 [Example 188, 4-(3,8-diazabicyclo[3.2.1]octan-3-yl)-7-(8-ethynyl-1-naphthyl)-8-fluoro-pyrido[4,3-d]pyrimidine]",1920
13,"C#Cc1c(F)ccc2cccc(-c3ncc4c(N5C[C@H]6CC[C@@H](C5)N6)nc(OCC56CCCN5CCC6)nc4c3F)c12 [Example 189, 4-((1R,5S)-3,8-diazabicyclo[3.2.1]octan-3-yl)-7-(8-ethynyl-7-fluoronaphthalen-1-yl)-8-fluoro-2-((tetrahydro-1H-pyrrolizin-7a(5H)-yl)methoxy)pyrido[4,3-d]pyrimidine]",0.5
14,"CN1CCC[C@H]1COc1nc(N2C[C@H]3CC[C@@H](C2)N3)c2cnc(-c3cc(O)cc4ccccc34)c(Cl)c2n1 [Example 191, 4-(4-((1R,5S)-3,8-diazabicyclo[3.2.1]octan-3-yl)-8-chloro-2-(((S)-1-methylpyrrolidin-2-yl)methoxy)pyrido[4,3-d]pyrimidin-7-yl)naphthalen-2-ol]",69.1
15,CN1CCC[C@H]1COc1nc(N2CC3CCC(C2)N3)c2cnc(-c3cccc4cccc(C#N)c34)c(F)c2n1 [Example 192],225
16,"OCC#Cc1cccc2cccc(-c3ncc4c(N5C[C@H]6CC[C@@H](C5)N6)nc(OCC56CCCN5CCC6)nc4c3F)c12 [Example 193, 3-(8-(4-((1R,5S)-3,8-diazabicyclo[3.2.1]octan-3-yl)-8-fluoro-2-((tetrahydro-1H-pyrrolizin-7a(5H)-yl)methoxy)pyrido[4,3-d]pyrimidin-7-yl)naphthalen-1-yl)prop-2-yn-1-ol]",12.5
17,"CN1CCC[C@H]1COc1nc(N2C[C@H]3CC[C@@H](C2)N3)c2cnc(-c3cccc4cccc(C#CCO)c34)c(F)c2n1 [Example 194, 3-(8-(4-((1R,5S)-3,8-diazabicyclo[3.2.1]octan-3-yl)-8-fluoro-2-(((S)-1-methylpyrrolidin-2-yl)methoxy)pyrido[4,3-d]pyrimidin-7-yl)naphthalen-1-yl)prop-2-yn-1-ol]",151
18,"CC#Cc1cccc2cccc(-c3ncc4c(N5C[C@H]6CC[C@@H](C5)N6)nc(OCC56CCCN5CCC6)nc4c3F)c12 [Example 195, 4-((1R,5S)-3,8-diazabicyclo[3.2.1]octan-3-yl)-8-fluoro-7-(8-(prop-1-yn-1-yl)naphthalen-1-yl)-2-((tetrahydro-1H-pyrrolizin-7a(5H)-yl)methoxy)pyrido[4,3-d]pyrimidine]",20.7
19,"Fc1c(-c2cccc3c2OC(F)(F)O3)ncc2c(N3C[C@H]4CC[C@@H](C3)N4)nc(OCC34CCCN3CCC4)nc12 [Example 196, 4-((1R,5S)-3,8-diazabicyclo[3.2.1]octan-3-yl)-7-(2,2-difluorobenzo[d][1,3]dioxol-4-yl)-8-fluoro-2-((tetrahydro-1H-pyrrolizin-7a(5H)-yl)methoxy)pyrido[4,3-d]pyrimidine]",467
20,"Fc1c(-c2cccc(C(F)(F)F)c2C(F)(F)F)ncc2c(N3C[C@H]4CC[C@@H](C3)N4)nc(OCC34CCCN3CCC4)nc12 [Example 197, 4-((1R,5S)-3,8-diazabicyclo[3.2.1]octan-3-yl)-7-(2,3-bis(trifluoromethyl)phenyl)-8-fluoro-2-((tetrahydro-1H-pyrrolizin-7a(5H)-yl)methoxy)pyrido[4,3-d]pyrimidine]",99.9
21,"N#Cc1cccc2cccc(-c3ncc4c(N5C[C@H]6CC[C@@H](C5)N6)nc(OCC56CCCN5CCC6)nc4c3F)c12 [Example 198, 8-(4-((1R,5S)-3,8-diazabicyclo[3.2.1]octan-3-yl)-8-fluoro-2-((tetrahydro-1H-pyrrolizin-7a(5H)-yl)methoxy)pyrido[4,3-d]pyrimidin-7-yl)-1-naphthonitrile]",20.3
